{"source": "patent US5646130A", "about": "“Low molecular weight sulfated polysaccharides and uses thereof” (priority 1995, dated 1997)", "key": {"[1]": {"system": "white blood cells", "test": "Cyclophosphamide immunosuppression in albino mice", "assay_type": "in vivo", "settings": "cyclophosphamide alone", "text": "These compounds provided herein can also be used for enhancing cellular and humoral immunological activities. In particular, these compositions and compounds prevent or reduce the immunosuppressive side-effects associated with the administration of alkylating agents, such as cyclophosphamide, for treatment of certain cancers."}, "[2]": {"system": "preformed rabbit blood clot", "test": "Ex vivo thrombolysis of preformed rabbit blood clot", "settings": "335 U/ml", "method": "A rabbit arterial blood clot [1 ml] was preformed at 37° C., for 60 min. The clot was incubated in vitro with the drug (0.1 ml, 6 groups) in the clot forming tube at 37° C. for 60 min. At the end of the incubation, the clot was removed and its wet weight determined. It was then dried overnight and its dry weight was determined."}, "[3]": {"system": "fibrinolysis (euglobulin lysis)", "test": "Euglobulin lysis time in rabbits", "assay_type": "in vivo, rabbit", "settings": "iv 333 U/Kg", "from_the_text": "ELT:englobulin (euglobulin) lysis time; a measurement of in vivo plasmin"}, "[4]": {"system": "fibrin degradation protein (FDP)", "test": "Fibrinolysis activity in rabbits (FDP, fibrinogen)", "assay_type": "in vivo, rabbit", "settings": "iv 333 U/Kg"}, "[5]": {"system": "thrombus formation", "test": "Comparison of (M9 G)2 and heparin, thrombosis assay, Experiment 2", "assay_type": "in vivo, rabbit", "settings": "83 u/kg", "method": "Rabbits were anesthetized and surgically instrumented using an established method in which the right carotid artery was connected via a polyethylene tube to the left external […]. A 15 cm [#4] surgical wire was left in the polyethylene tubing for thrombus formation. The animals were then treated with saline or drug intravenously for 10 minutes and the arterial-venous shunt was connected to allow blood flow for 15 minutes. The wire was then retrieved and weighed to determine the thrombus weight."}, "[6]": {"system": "rabbit blood clot formation", "test": "Ex vivo anti-thrombotic activity in treated rabbits (clot wet weight)", "settings": "83 u/kg", "method": "Blood [1 ml] was removed from the carotid artery of treated animals and quickly injected into clot formation tubes. […] The wet weight of the clot was determined. The clot was dried at 60° C. overnight, and dry weight was determined."}, "[7]": {"system": "hyperlipoproteinemia", "test": "Anti-hyperlipoproteinic activity in rats", "assay_type": "in vivo, rat", "settings": "300 mg/Kg PO", "text": "The pharmacological activity increased with oral dose levels."}}, "data": [{"molecule": "O=P1(N(CCCl)CCCl)NCCCO1", "note": "(centres unmarked) [cyclophosphamide]", "values": [{"measurement": "White blood cell counts", "setting": "[1]", "value": "close to zero"}]}, {"molecule": "heparin", "values": [{"measurement": "% Dissolution", "setting": "[2]", "value": "4.7 ± 8.5", "unit": "%"}, {"measurement": "Clot dry weight", "setting": "[2]", "value": "14.1 ± 3.2"}, {"measurement": "Clot wet weight", "setting": "[2]", "value": "56 ± 9"}, {"measurement": "ELT time, 15 min post", "setting": "[3]", "value": 124, "unit": "min"}, {"measurement": "ELT time, 60 min post", "setting": "[3]", "value": 197, "unit": "min"}, {"measurement": "FDP, 15 min post", "setting": "[4]", "value": "18 ± 9", "unit": "mg/L"}, {"measurement": "FDP, 60 min post", "setting": "[4]", "value": "6 ± 6.", "unit": "mg/L"}, {"measurement": "Wet weight inhibition, 15 min", "setting": "[5]", "value": 97}, {"measurement": "Wet weight inhibition, 60 min", "setting": "[5]", "value": 20}, {"measurement": "Wet weight inhibition, 120 min", "setting": "[5]", "value": 0}, {"measurement": "Clot wet weight, 15 min after", "setting": "[6]", "value": "2.0 ± 4.5", "unit": "mg"}, {"measurement": "Clot wet weight, 60 min after", "setting": "[6]", "value": "51 ± 23", "unit": "mg"}]}, {"molecule": "CCOC(=O)C(C)(C)Oc1ccc(Cl)cc1", "note": "[clofibrate]", "values": [{"measurement": "MDA", "setting": "[7]", "value": 1.2, "unit": "mmol/L"}, {"measurement": "PTC (percent inhibition of total cholesterol)", "setting": "[7]", "value": 53, "unit": "%"}, {"measurement": "TC", "setting": "[7]", "value": 4.0, "unit": "mmol/L"}, {"measurement": "TG", "setting": "[7]", "value": 0.4, "unit": "mmol/L"}]}]}
